The test system of assay [1] is mTEC-KO cells. In words: Reversal of mesenchymal actin cytoskeleton, F-actin phalloidin staining. It counts as cell-based, mouse. The note with it: 100 pM TGF-β1 72 h, then inhibitor 24 h; 5 μM SB431542, 1 μM SB203580, 1 μM Y27632, 10 μM U0126, 15 μM SP600125. The method, then:
Renal tubular epithelial cells (mTEC-KOs) were treated with 100 pm TGF-β1 for 72 hours and then kinase inhibitors were added for an additional 24 hours. The F-actin in the cells was visualized by staining with phalloidin. mTEC-KO cells were treated with a single kinase inhibitor (A-E) or with SB431542 plus a second kinase inhibitor (F-I). Single kinase inhibitors and concentrations were: 5 μM SB431542 (A), 1 μM SB203580 (B), 1 μM Y27632 (C), 10 μM U0126 (D), or 15 μM SP600125 (E). Combination kinase inhibitors included 5 μM SB431542 with 1 μM SB203580 (F), 1 μM Y27632 (G), 10 μM U0126 (H) or 15 μM SP600125 (I). […] White arrows point to stress fibers.
(§1) Cells were seeded on glass cover slips (Fisher) and cultured as described above. Cells were treated, fixed in 4% paraformaldehyde, and permeabilized in PBS containing 0.1% Triton X-100 for 10 min. Nonspecific sites were blocked with 10% BSA or normal goat serum for 30 min. F-actin was stained at a 1:1000 dilution in 2% BSA of Texas Red-conjugated phalloidin (Sigma) and incubated for 30 min. E-cadherin (BD Biosciences) was diluted at 1:200 in 2% normal goat serum and a secondary antibody (Molecular Probes) at a 1:500 dilution was used for detection. All washes were done in 1× PBS.
To examine the reversibility of the EMT induced by TGF-β1 in mTEC-KO cells, we added inhibitors of kinases previously implicated in EMT. Cells were treated with 100 pM TGF-β1 for 72 hours to induce EMT and kinase inhibitors were added for an additional 24 hours. […] To assess the effects of the kinase inhibitors on EMT, the actin cytoskeleton was examined by phalloidin staining.
Since EMT effects are mediated by multiple cellular pathways and none of the single kinase inhibitors reverted the EMT phenotype, we applied combinations of two inhibitors. […] Cortical actin bordering the cell-cell junctions was restored by both combinations. The addition of either the MEK1 inhibitor or the JNK inhibitor to the […] inhibitor had no detectable effect on the mesenchymal phenotype of the cells (FIGS. 4H and I).

Assay [2] deals with Ksp-cadherin. Kind of assay: Ksp-cadherin mRNA by quantitative RT-PCR after EMT. It counts as cell-based, mouse. To be noted: 100 pM TGF-β1 72 h, then inhibitor(s) for an additional 24 hours.
Procedure: In a six well plate, 50,000 cells were seeded and appropriately treated. Total RNA was isolated using RNAeasy Miniprep kit (Qiagen) and quantified by UV spectrophotometer. 1.5 μg of RNA was converted by reverse transcriptase into cDNA using the OmniScript kit (Qiagen). […] 3′. cDNA was amplified in an Opticon 2 PCR machine (MJ Research) and labeled by the DyNAmo SYBR Green qPCR Kit. The amplification was carried out in the following manner: initial denaturation for 10 min at 95° C., denaturation for 10 sec at 95° C., annealing for 30 sec at the appropriate temperature, and extension for 30 sec at 72° C. Standards were created from Pfu (Stratagene) amplified PCR products purified by gel purification. Glyceraldehyde-3-phosphate dehydrogenase (GAPDH) was used as an internal control to normalize gene expression.
The effects of individual or combinations of kinase inhibitors on the expression of several genes altered by EMT were measured by quantitative RT-PCR.
Assay [3] deals with E-cadherin. Kind of assay: E-cadherin immunofluorescence at cell junctions after EMT. It counts as cell-based, mouse. The note with it: 100 pM TGF-β1 72 h, then inhibitors for an additional 36 hours; 5 μM SB431542, 5 μM SB203580, 5 μM Y27632, 15 μM SP600125. The method, then:
FIG. 6: E-cadherin is restored by combining TβRI kinase inhibitor with either the ROCK inhibitor or the p38 MAPK inhibitor. E-cadherin is found between mTEC-KO cells (A). mTEC-KO cells were treated with 100 pM TGF-β1 for 72 hours to induce mesenchymal state in which E-cadherin is lost (B). Single inhibitors or combinations of two inhibitors were added for an additional 36 hours. […] E-cadherin reformed between cells that used combination kinase inhibitors which included 5 μM SB431542 with 5 μM SB203580 (G), 5 μM Y27632 (H), but not 15 μM SP600125 (I). Cell lysates from mTEC-KOs were analyzed by western blot using antibodies to E-cadherin and β-tubulin (J). Control epithelial cells were grown without TGF-β (Lane 3). The cells were then treated for an additional 48 hours with no inhibitor (Lane 2), single inhibitors (5 μM Y27632, Lane 6; 5 μM SB203580, Lane 7; 5 μM SB431542, Lane 8) or with the combination of 5 μM SB431542 with either 15 μM SP600125 (Lane 1), 5 μM Y27632 (Lane 4) or 5 μM SB203580 (Lane 5).
as §1
An important criterion for epithelium restoration is re-expression of the cell-cell junction adhesion protein E-cadherin. mTEC-KO cells were treated with 100pm TGF-β1 for 72 hours to induce EMT and then kinase inhibitors were added for an additional 24-48 hours (FIG. 6).

The subject of assay [4] is MMP-9. In words: MMP-9 mRNA by quantitative RT-PCR after EMT. To be noted: 100 pM TGF-β1 72 h, then inhibitor(s) for an additional 24 hours. It counts as cell-based, mouse. The method, then:
(§2) FIG. 5: Restoration of epithelial gene expression patterns by kinase inhibitors illustrates a requirement for two kinase inhibitors to restore cadherin expression. mTEC-KO cells were treated with 100 pm TGF-β1 for 72 hours to induce EMT. Single kinase inhibitors or inhibitor combinations were added, cells were grown for an additional 24 hours and harvested for preparation of RNA. Ksp-cadherin (A), SM22 (B), and MMP-9 (C) mRNA levels were measured by quanitative RT-PCR. Significant differences between the untreated (No TGF-β1) cells versus cells treated with TGF-β1 or with TGF-β1 followed by inhibitor are indicated with an asterisk (*) (P<0.05, n=9). Significant differences between single inhibitors versus combination inhibitors are indicated by a letter (a,b,c) over the bar showing the combination. Each letter refers to the single inhibitor in the graph (indicated by the letter below the name of the inhibitor).
(§3) In a six well plate, 50,000 cells were seeded and appropriately treated. Total RNA was isolated using RNAeasy Miniprep kit (Qiagen) and quantified by UV spectrophotometer. 1.5 μg of RNA was converted by reverse transcriptase into cDNA using the OmniScript kit (Qiagen). Primers used for Q-PCR were: KSP-Cadherin forward-5′ CTG CAC ACA GM GTC CCT GA 3′, reverse 5′ CCTTGTCGCCACTAGAAAGC 3′; MMP-9-SuperArray (Frederick, Md.) PPM03661A; SM22 forward 5′GCA GTC CM MT TGA GM GA 3′, reverse 5′ CTGTTGCTGCCCATTTGAAG 3′; PAI-1 forward 5′TTCAGCCCTTGCTTGCCTC 3′, reverse 5′[…] 3′. cDNA was amplified in an Opticon 2 PCR machine (MJ Research) and labeled by the DyNAmo SYBR Green qPCR Kit. The amplification was carried out in the following manner: initial denaturation for 10 min at 95° C., denaturation for 10 sec at 95° C., annealing for 30 sec at the appropriate temperature, and extension for 30 sec at 72° C. Standards were created from Pfu (Stratagene) amplified PCR products purified by gel purification. Glyceraldehyde-3-phosphate dehydrogenase (GAPDH) was used as an internal control to normalize gene expression. […]

Assay [5] relates to SM22. Kind of assay: SM22 mRNA by quantitative RT-PCR after EMT. It counts as cell-based, mouse. The note with it: 100 pM TGF-β1 72 h, then inhibitor(s) for an additional 24 hours. The method, then:
as §2, §3

The subject of assay [6] is mTEC-KO cells. In words: Blocking of TGF-β1-induced EMT (cell morphology, phalloidin staining). It counts as cell-based, mouse. The note with it: 10 μM SB431542 together with TGF-β1 for 72 hours. The method, then:
FIG. 1: TGF-β1 induces EMT in renal tubular epithelial cells. mTEC-KOs were incubated for 72 hours without TGF-β1 (A,D), with 100 pM TGF-β1 (B, E) or with TGF-β1 and 10 μM SB431542. Cell morphology was observed by brightfield phase microscopy at 100× magnification (A-C). […] White arrows point to stress fibers.
TGF-β knockout Murine Renal Epithelial Tubular Cells (mTEC-KO) were maintained in Renal Epithelial Cell Growth Medium (Cambrex, Md.) containing 0.25% Fetal Bovine serum (FBS), supplemented with a Bullet Kit that contained: epidermal growth factor, insulin, hydrocortisone, GA-1000, epinephrine, T3, transferrin (Cambrex), as well as penicillin and streptomycin (Gibco) in a 37° humidified 5% CO2 incubator.
Cells were seeded on glass cover slips (Fisher) and cultured as described above. Cells were treated, fixed in 4% paraformaldehyde, and permeabilized in PBS containing 0.1% Triton X-100 for 10 min. Nonspecific sites were blocked with 10% BSA or normal goat serum for 30 min. F-actin was stained at a 1:1000 dilution in 2% BSA of Texas Red-conjugated phalloidin (Sigma) and incubated for 30 min. E-cadherin (BD Biosciences) was diluted at 1:200 in 2% normal goat serum and a secondary antibody (Molecular Probes) at a 1:500 dilution was used for detection. All washes were done in 1× PBS. […]

In assay [7] the test system is PAI-1. In words: PAI-1 mRNA expression by quantitative RT-PCR in TGFβ-induced mesenchymal cells. It counts as cell-based, mouse. The note with it: 100 pM TGF-β1 72 hours, then 5 uM inhibitor for 24 hours. The method, then:
TGFβ1 ligand (100 pM) was added to mTEC-KOs for 72 hours, followed by the addition of 5 μM SB431542 plus 100 pM TGFβ1 for an additional time 24 hours. Cell lysates were used to prepare RNA which was examined by quantitative RT-PCR for PAI-1. Significant differences in PAI-1 expression level between cells treated with TGF-β1 alone versus cells treated with TGF-β1 and then with inhibitor for the indicated times are indicated with an asterisk (*) (P<0.05, n=9).
as §3, with “C.” for “C. Standards were created from Pfu (Stratagene) amplified PCR products purified by gel purification. Glyceraldehyde-3-phosphate dehydrogenase (GAPDH) was used as an internal control to normalize gene expression.”

The conditions of assay [8]: cited from earlier work.
Assay [9] relates to mouse distal tubular epithelial cells. To be noted: 100 ng/ml BMP7 for 48 hours; cited from earlier work.
For assay [10] the following is noted: 300 ug/kg human BMP7 every other day beginning at week three; cited from earlier work.

Take `C[S+]([O-])c1ccc(-c2nc(-c3ccncc3)c(-c3ccc(F)cc3)[nH]2)cc1` (stereo not shown) [SB203580]: the “reversal of mesenchymal actin stress fiber morphology, single kinase inhibitor” value in assay [1] was “fail to reverse the mesenchymal actin cytoskeleton”. In addition, the “Ksp-cadherin mRNA level” value in assay [2] is “led to a further decrease in Ksp-cadherin expression”. Besides, the “E-cadherin at cell junctions (localization)” value (shortened to “E-cadherin at cell junctions”) in assay [3] was “caused an increase in reforming E-cadherin at cell junctions”. In addition, the “MMP-9 mRNA level” value in [4] is on record as “did not reduce SM22 or MMP9 transcript levels”. For the same molecule, the “SM22 mRNA level” value in assay [5] is listed as “did not reduce SM22 or MMP9 transcript levels”.
With `NC(=O)c1ccc(-c2nc(-c3ccc4c(c3)OCO4)c(-c3ccccn3)[nH]2)cc1` [SB431542], the “reversal of mesenchymal actin stress fiber morphology, single kinase inhibitor” value in assay [1] is listed as “did not reverse the mesenchymal actin stress fiber morphology”. Besides, the “Ksp-cadherin mRNA level” value in assay [2] was “increased Ksp-cadherin to intermediate levels”. Also, in [6], the “TGF-β1-induced transition of epithelial cells into mesenchymal cells” value is on record as “blocked the TGF-β1-induced transition of the mTEC-KO epithelial cells into mesenchymal cells” and the “actin stress fibers (phalloidin) when inhibitor is given with TGF-β1” value was “very few actin stress fibers were observed”. Moreover, the “E-cadherin at cell junctions” value in [3] was “caused an increase in reforming E-cadherin at cell junctions”. The “MMP-9 mRNA level” value in [4] is “efficiently reduced SM22 and MMP-9 expression to pre-EMT levels”. For the same molecule, the “PAI-1 mRNA level” value in [7] is reported as “sufficient to reduce the mRNA level”. Further, the “SM22 mRNA level” value in assay [5] was “efficiently reduced SM22 and MMP-9 expression to pre-EMT levels”.
As to `N#CC(=C(/N)Sc1ccccc1N)/C(C#N)=C(\N)Sc1ccccc1N` [U0126], the “reversal of mesenchymal actin stress fiber morphology, single kinase inhibitor” value in assay [1] is on record as “fail to reverse the mesenchymal actin cytoskeleton”.
With `C[C@@H](N)[C@H]1CC[C@H](C(=O)Nc2ccncc2)CC1` [Y27632], the “reversal of mesenchymal actin stress fiber morphology, single kinase inhibitor” value in assay [1] is listed as “fail to reverse the mesenchymal actin cytoskeleton”. The “Ksp-cadherin mRNA level” value in assay [2] is recorded as “increased Ksp-cadherin to intermediate levels”. Besides, the “E-cadherin at cell junctions” value in [3] was “caused an increase in reforming E-cadherin at cell junctions”. Besides, the “MMP-9 mRNA level” value in [4] was “increased the level of MMP9 expression”. Also, in assay [5], the “SM22 mRNA level” value is “partially reduced SM22 levels”.
In the case of HGF: hepatocyte growth factor, in [8], the “reversal of EMT in vivo” value is on record as “only provided a partial reversal of EMT”.

B1: BMP7: TGFβ superfamily member that acts through distinct receptors and Smad proteins (protein, UniProt P18075 293-431, looked up)
Bone morphogenetic protein 7: STGSKQRSQNRSKTPKNQEALRMANVAENSSSDQRQACKKHELYVSFRDLGWQDWIIAPEGYAAYYCEGECAFPLNSYMNATNHAIVQTLVHFINPETVPKPCCAPTQLNAISVLYFDDSSNVILKKYRNMVVRACGCH
B1: in [9], the “reversal of TGF-β1 induced EMT (E-cadherin expression, epithelial morphology)” value is on record as “reversed”. Also, in assay [10], the “renal pathology (mortality, renal function)” value was “reversed the renal pathology as indicated by a decline in mortality, and improvement in renal function”.
